{"source": "paper PMC7334220", "about": "“Diamond Blackfan anemia is mediated by hyperactive Nemo-like kinase” (Nature Communications, 2020)", "key": {"p38 [1]": {"molecular_target": "T1, p38 (Homo sapiens, UniProt Q16539)", "T1 construct": "endogenous in cells; host or cells: Kp53A1 cells stimulated with IL-3, IL-6, SCF and Epo; immunoprecipitated with a p38 antibody", "T1 sequence (Q16539 2-360 limits assumed)": "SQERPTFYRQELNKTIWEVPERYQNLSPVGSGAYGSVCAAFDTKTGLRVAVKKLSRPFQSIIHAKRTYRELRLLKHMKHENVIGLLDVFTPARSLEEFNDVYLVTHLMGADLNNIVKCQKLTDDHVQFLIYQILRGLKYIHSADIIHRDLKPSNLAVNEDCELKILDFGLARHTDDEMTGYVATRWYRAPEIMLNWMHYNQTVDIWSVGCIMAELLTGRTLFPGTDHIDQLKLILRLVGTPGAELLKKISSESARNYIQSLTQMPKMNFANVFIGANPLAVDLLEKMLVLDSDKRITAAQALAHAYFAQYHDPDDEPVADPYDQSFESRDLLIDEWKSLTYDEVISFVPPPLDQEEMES", "experiment": "p38 in vitro kinase assay", "assay_type": "biochemical", "details": "Supplementary Fig. 4b; read-out: observed IC50 against p38", "experimental": "Equivalent protein was loaded between samples. b—blue Transduced progenitors were differentiated for 15 days and sorted for surface expression of CD235 + , CD41 + and CD11b + population NLK mRNA was assessed by qRT-PCR. c Control and shRPS19-transduced CB progenitors were differentiated for 10 days prior to separation into CD71^+ and CD71^- populations and assessed for pThr298-NLK phosphorylation by Western blot analysis. d—purple CB CD34 + progenitors were transduced with shRNA against luciferase (shLuc) or RPS19 (shRPS19) along with CFP-NLK and YFP-NLK and differentiated for 10 days. NLK dimerization was quantified by FRET. e—left panel NLK was immunoprecipitated from transduced differentiating CD71^+ and CD71^- populations after 10 days, and incubated in the presence of ATP, Mg^2+ and dephosphorylated NLK (i orange), c-Myb (ii—blue) and Raptor (iii—green) for 30 min at 37 °C. Phosphorylation was detected by a combination of anti^-phosphoserine-HRP and anti-phosphothreonine-HRP antibodies, or mouse anti-phosphoserine and anti-mouse-HRP antibodies. e—right panel For comparison, NLK in vitro kinase activity was assessed from CD235^+, CD41^+ and CD11b^+ populations enriched after identical treatments. f A panel of eight small molecule p38 inhibitors were titrated into in vitro kinase assays in the presence of activated NLK or p38 from stimulated Kp53A1 cells. […]"}, "p38 [2]": {"system": "p38", "experiment": "DiscoveRX kinase profile analysis of SD208, p38", "assay_type": "biochemical", "details": "10 µM; kinase profiling; Supplementary Fig. 2a"}, "[3]": {"system": "RPS19-insufficient Lin-Kit+ cells", "experiment": "Erythroid differentiation (Ter119+) of Lin-Kit+ cells from tetracycline-inducible shRPS19 mice", "assay_type": "cell-based, mouse", "details": "SD208 with doxycycline; 8 days; three mice; without SD208 24.3, 20.3, 18.5%; Fig. 8b", "experimental": "Cells were counted and assessed for cell surface expression of CD235. b Lin-Kit^+ hematopoietic progenitors were obtained from three mouse embryos expressing tetracycline-inducible shRNA against RPS19 at day E14.5 or three untreated mice, and thee mature RPL11^+/+ or three mature RPL11^+/lox mice treated with tamoxifen for eight weeks. […] Values were expressed as a percentage relative to untreated controls. c, d Intracellular phosphorylation of NLK at […] was determined by capillary electrophoresis using the Peggy SueTM Automated Western blotting platform. […] After counting the total cell population, the ratio of CD235^+ erythroblasts was determined by flow cytometry and number of CD235^+ erythroblasts calculated. This was expressed as a percentage of the average number of erythroid cells present in untreated healthy controls. f NLK phosphorylation was assessed by capillary electrophoresis as above. Bars represent means ± SD with individual data points overlaid. […] Statistics: two-tailed Student's t test, significant *p < 0.05. Also see Supplementary Fig. 8. Source data are provided as a Source Data file. […] RPS19-insufficiency reduced Ter119^+ erythroblasts to 24.3, 20.3, and 18.5% of controls differentiated in the absence of doxycycline."}, "[4]": {"details": "authors' statement in rebuttal, no data or reference; cited from earlier work"}}, "note": "pIC50: −log10 of the molar value. Several values for one entry are separate records, joined by “and”; a condition that tells them apart may be missing. Identical values can stand only once.", "data": [{"smiles": "Fc1ccc(Cl)cc1-c1nc(Nc2ccncc2)c2nccnc2n1", "note": "[SD208]", "values": [{"measurement": "pIC50", "setting": "p38 [1]", "result": 6.04}, {"measurement": "inhibition of p38 kinase activity", "setting": "p38 [2]", "result": 99.6, "unit": "%"}, {"measurement": "Ter119+ erythroblasts, % of controls differentiated without doxycycline", "setting": "[3]", "result": "83.2% and 81.1% and 76.6%"}, {"measurement": "solubility", "setting": "[4]", "result": "poor"}]}]}
